Assay results as given in PMC8154177 (Circulation, 2021).
pIC50: −log10 of the molar value. Where two headings read alike, the source gives them in different places.

Columns and labels:
[1] = system: mouse cardiomyocytes; assay: Calcium transients (Fluo-4) in paced single mouse cardiac myocytes, veratridine-induced spontaneous events; format: cell-based
Description: Cardiomyocytes were isolated from 3- to 6-month-old male C57Bl6N mice as described above and then loaded with 1 µmol/L Fluo-4 AM for 30 to 60 minutes at room temperature before imaging with an Olympus IX83 inverted microscope. The cells were perfused with a gravity controlled, multi-channel superfusion system at a flow rate of 1.5 mL/min. Fluorescence was recorded at 20 Hz through a UPLSAPO 20X objective and an Andor iXon Ultra 897 camera after excitation at 480 nm for 9.85 ms at 5% intensity of the X-cite 120 LED Boost Excelitas light source. Cardiomyocytes were field-stimulated at 1 Hz at a current value 10% above the threshold current required to elicit contraction using a current stimulator (Warner Instruments, SIU-102) equipped with platinum electrodes submerged in the recording bath. Cardiomyocytes were selected on the basis of their typical rod-shaped morphology, the absence of unpaced calcium events, and their consistent response to field stimulation. […] Regions of interest were selected such that the cardiomyocyte resided within the boundaries of the regions of interest in both its contracted and its relaxed state. The average fluorescence intensity for the regions of interest in every frame was then analyzed. Fifty-second segments of the fluorescence intensity trace in control and treated conditions from the same cardiomyocyte were obtained. Typically, these segments were the last 50 s during the >120 s superfusion of the chosen treatment condition.

[2] = system: cardiac sodium current (peak, total, late-INa) in sham cardiomyocytes; assay: Whole-cell patch-clamp of sodium currents in cardiomyocytes from sham-operated mice; format: cell-based, mouse; settings: 10 µmol/L
Description: (§1) Male C57BL/6 N mice (7 weeks of age) were obtained from Charles River Canada (St. Foy, Quebec) and housed in a temperature and humidity-controlled animal facility with a 12:12-hour light-dark cycle for a minimum of 1 week before investigation. Animals were maintained on Rodent Chow #5001 and water ad libitum. Eight-week-old mice weighing 20 to 25 g were anesthetized with a cocktail of ketamine (100 mg/kg) and xylazine (20 mg/kg) intraperitoneal and preoperative analgesia (meloxicam, 1–2 mg/kg subcutaneous). Once animals reached a surgical plane, endotracheal intubation was performed using 22-G tubing. The endotracheal tube was then connected to a ventilator (Hugo-Sachs Electronik Mini-Vent, Harvard Apparatus Canada) and ventilated at 200 to 250 µl stroke volume and 150 breaths/min. Animals were then prepared for surgery (Liquid Tears applied to eyes; chest and throat shaved and washed and topical antiseptic utilized, then draped). A vertical skin incision was made from the suprasternal notch to midsternum, and then straight blunt scissors were used to cut the sternum to the third or fourth rib. Mini-Goldstein (FST) spreaders were used to retract the ribs. The thymus was blunt-dissected and the aortic arch visualized. The transverse arch was carefully dissected free of connective tissue, and a 6/0 silk tie was passed around the arch between the innominate and left carotid arteries. A double-blunted 27-G (0.4-mm) needle was then placed alongside the arch and the tie ligated. The blunted needle was then removed to standardize the stenosis. The thymus was gently replaced, and retractors removed. Two sutures were placed in the sternum, and the skin incision was closed using 6/0 Vicryl suture continuous pattern. Sham-operated animals underwent the same procedure without banding. Animals were removed from the ventilator and left to recover in a prewarmed cage with no bedding until the “righting reflex” was achieved, and checked initially every 5 to 10 minutes for the first 60 minutes, then regularly at 20 to 30 minutes intervals for the next 2 to 3 hours. […]

[3] = system: cardiac sodium current (peak, total, late-INa) in TAC cardiomyocytes; assay: Whole-cell patch-clamp of sodium currents in cardiomyocytes from TAC (heart failure) mice; format: cell-based, mouse; settings: 10 µmol/L
Description: as §1

[4] = target: T1, human Nav1.5 R1623Q (Homo sapiens, UniProt Q14524, R1623Q); assay: Whole-cell patch-clamp of recombinant Nav1.5 LQT3 R1623Q mutant; format: cell-based; settings: 10 µmol/L
T1 construct: expressed in transfected cells; host or cells: HEK293T
Description: (§2) The human Nav1.5 gene (SCN5A) in the pcDNA3.1(+)/C-(K)DYK vector (GenScript, Cat No. OHu18270D, USA) was cotransfected with a GFP vector into HEK293T cells using Lipofectamine 3000 (Invitrogen, Cat No. L3000001, USA). Transfected cells were seated on coverslips and used for functional studies within 48 to 72 hours. […] PCR products were cloned into XL-10 Gold Ultracompetent cells (Agilent, Cat No. 200315, USA), and DNA was isolated and purified by GeneElute Plasmid Miniprep kits (Sigma, Cat No. PLN350, USA). The presence of the desired mutations and the integrity of plasmids were then verified by DNA sequencing (The Applied Genomics Core, University of Alberta). The R1623Q LQT3 mutation in human Nav1.5 was constructed as described previously.[42]
(§3) Pipettes were pulled from borosilicate glass (World Precision Instruments, Sarasota, FL) using a P-87 micropipette puller (Sutter Instruments, Novato, CA), and the tips were fire-polished, yielding resistances of 3 to 4 MΩ. The pipette solution contained (in mmol/L) 130 CsCl, 5 NaCl, 5 TEA (tetra-ethyl ammonium chloride)-Cl, 2.5 HEPES, 1 EGTA, and 2 MgATP. The pH was adjusted to 7.2 with CsOH. The extracellular solution contained (in mmol/L) 140 NaCl, 10 HEPES, 1 CaCl2, 1.4 MgCl2, 5 KCl, and 5 glucose (pH adjusted to 7.4 with NaOH).

[5] = target: T2, human Nav1.5 ΔKPQ (Homo sapiens, UniProt Q14524, DEL1505-1507); assay: Whole-cell patch-clamp of recombinant Nav1.5 LQT3 ΔKPQ mutant; format: cell-based; settings: 10 µmol/L
T2 construct: host or cells: HEK293T
Description: as §2, §3

[6] = target: T3, human NCX1.1 (Homo sapiens, UniProt P32418); assay: Whole-cell patch-clamp of reverse-mode NCX1.1 current in HEK293T cells; format: cell-based; settings: 1 µmol/L
T3 construct: expressed in transfected cells; host or cells: HEK293T
From the text: as §3

[7] = system: NLRP3 inflammasome; assay: Immunoblot of NLRP3 and TXNIP in isolated mouse hearts after ischemia-reperfusion (Langendorff)
[8] = system: isolated mouse hearts; assay: Postischemic functional recovery (LVDP) of isolated Langendorff-perfused mouse hearts
[9] = target: T4, human Nav1.5 (WT) (Homo sapiens, UniProt Q14524); settings: for Effect on peak-INa: over a range of concentrations
[10] = target: T4, human Nav1.5 (WT); assay: cell-based
[11] = 1 µmol/L, 30 min ischemia, 40 min reperfusion

COc1ccccc1OCC(O)CN1CCN(CC(=O)Nc2c(C)cccc2C)CC1 (centres unmarked) [ranolazine]
Effect on incidence of veratridine-induced spontaneous transients ([1]; 10 µmol/L, 20 nmol/L veratridine): significantly reduced

OC[C@H]1O[C@@H](c2ccc(Cl)c(Cc3ccc(O[C@H]4CCOC4)cc3)c2)[C@H](O)[C@@H](O)[C@@H]1O [empagliflozin]
Effect on late-INa [2]: did not significantly alter | Effect on peak current [2]: did not significantly alter | Effect on total sodium current [2]: did not significantly alter | Effect on late-INa [3]: significantly reduced | Effect on peak current [3]: did not affect | Effect on total current (area under the curve) [3]: significantly reduced | Effect on late component of R1623Q current [4]: significantly reduced | Effect on peak component of R1623Q current [4]: significantly reduced | Activation V50 after drug ([4]; R1623Q currents): –43.3 mV | Inactivation V50 after drug ([4]; R1623Q currents): –97.5 mV | Effect on peak current of ΔKPQ ([5]; data not shown): did not inhibit | Steady-state late-INa after drug ([5]; ≈2% before drug): ≈ 1 % of peak current amplitude | Reduction of the occurrence of veratridine-induced spontaneous transients ([1]; 1 µmol/L, 20 nmol/L veratridine, 1 Hz field stimulation): 46% | Effect on calcium transients in vehicle control-treated cardiomyocytes ([1]; no veratridine, data not shown): no observable effect | Inhibition of reverse-mode NCX1.1 [6]: no significant inhibition | Activation of TXNIP after ischemia-reperfusion [7, 11]: complete prevention | Activation of the NLRP3 inflammasome after ischemia-reperfusion [7, 11]: complete prevention | Reperfusion functional recovery (LVDP) [8, 11]: improved | Frequency dependence of peak- and late-INa inhibition ([9]; 1 µmol/L, stimulation frequencies 0.2–3 Hz): no significant differences | Effect on H2O2-induced late-INa in WT channels ([9]; 10 µmol/L): significantly inhibited | Effect on H2O2-induced late-INa ([9]; 1 and 10 µmol/L): significantly inhibited | Half-activation voltage (V50) after drug ([9]; WT currents, 10 µmol/L): –42.4 mV | Effect on peak-INa [9]: little effect | pIC50 [10]: 6.10

canagliflozin
Effect on peak-INa [9]: little inhibitory effect | pIC50 ([9]; read-out: IC50 for inhibition of H2O2-induced late-INa, recombinant human Nav1.5 in HEK293T cells, late-INa induced by 30 µmol/L H2O2): 5.90

CCN(CC)CC(=O)Nc1c(C)cccc1C [lidocaine]
Effect on incidence of veratridine-induced spontaneous transients [1]: significantly reduced

NC1=N[C@H](O)[C@H]2[C@H]3O[C@]4(O)O[C@@H]([C@@H](O)[C@@]2(N1)[C@@H]4O)[C@]3(O)CO [tetrodotoxin]
Activation of TXNIP after ischemia-reperfusion [7]: complete prevention | Activation of the NLRP3 inflammasome after ischemia-reperfusion [7]: complete prevention | Reperfusion functional recovery (LVDP) [8]: improved | Sensitivity of H2O2-induced persistent inward current (late-INa) [9]: sensitive

CCOc1ccc(Cc2cc([C@@H]3O[C@H](CO)[C@@H](O)[C@H](O)[C@H]3O)ccc2Cl)cc1 [dapagliflozin]
Effect on peak-INa [9]: little inhibitory effect | pIC50 [10]: 6.24

COc1ccc(C(=O)O[C@H]2CC[C@@]3(C)[C@@H]4CC[C@H]5[C@]6(O)C[C@H](O)[C@@]7(O)[C@@H](CN8C[C@@H](C)CC[C@H]8[C@@]7(C)O)[C@]6(O)C[C@@]53O[C@]24O)cc1OC [veratridine]
Induction of late-INa activity and spontaneous calcium transients ([1]; 20 nmol/L, pilot experiments): induces late-INa activity
